Patent publication US6410585B1, “Inhibitors of protein tyrosine phosphatase” (priority 1997, dated 2002)
Several values for one entry are separate records, joined by “and”; a condition that tells them apart may be missing. Identical values can stand only once. Like-named read-outs stand apart in the source and are kept apart here.

Legend:
human PTP1B = target: T1, human PTP1B (Homo sapiens, UniProt P18031); test: PTP1B assay, pNPP hydrolysis, assayed exactly as for PTP1; format: biochemical; details: for inhibition at 1 µM / inhibition at 10 µM / inhibition at 100 µM: Table 2, read-out: PTP1B Inhib PTP1B. % Inhib; for PTP1B Inhib PTP1B. % Inhib: Table 2
T1 construct: human PTP1B (amino acid residues 1-321); made in house; host or cells: E. coli BL21(DE3)
T1 sequence (P18031 1-321): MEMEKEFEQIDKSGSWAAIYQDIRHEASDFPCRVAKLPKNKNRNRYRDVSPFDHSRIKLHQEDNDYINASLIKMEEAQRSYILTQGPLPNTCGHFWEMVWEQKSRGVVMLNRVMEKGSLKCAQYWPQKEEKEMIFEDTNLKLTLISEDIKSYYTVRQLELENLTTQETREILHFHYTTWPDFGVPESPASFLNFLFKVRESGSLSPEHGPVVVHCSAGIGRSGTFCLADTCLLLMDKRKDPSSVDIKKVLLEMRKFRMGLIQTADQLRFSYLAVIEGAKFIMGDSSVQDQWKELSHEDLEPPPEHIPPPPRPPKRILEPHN
Source text: The equivalent construct of human PTP1B (amino acid residues 1-321) (cloned from a human placental library), without the GST tag and thrombin cleavage site, was inserted into a pMB replicon and transformed into E. coli BL21(DE3), a strain containing a chromosomal copy of the gene for T7 RNA polymerase under control of a lacUV5 promoter. Expression of PTP1B was induced with isopropyl thiogalactose and the soluble protein was purified by ion exchange, hydrophobic interaction and gel exclusion chromatography for use in the assay to identify PTP inhibitors.
PTP1 activity is measured using either p-nitrophenol phosphate (pNPP) or a triphosphopeptide (that matches residues 1142 through 1153 of the β-subunit and the insulin receptor) as substrate in a 96-well microtiter plate format. An assay pH of 7.2 is used for standard assays (measured 405=9800 at pH 7.2).
Human PTP1B, which is highly homologous to rat PTP1, was assayed exactly as described above for PTP1.
Standard assays are conducted at room temperature in a total volume of 0.2 ml that contains Hepes buffer (50 mM, pH 7.2), NaCl (50 mM), EDTA (1 mM), DTT (1 mM), bovine serum albumin (1 mg/ml), pNPP (1 mM) and PTP1 (35 ng/ml). Compounds (2 μl of 10 mM solutions) are pipetted into wells of microtiter plates followed by 198 μl of premixed reaction mix (with PTP1 and pNPP added immediately before use). The rate of change in A405 is recorded for 60 min. Two wells on each plate contain DMSO controls and two wells contain sodium orthovanadate (1 mM) which inhibits PTP1-catalyzed hydrolysis of pNPP completely. Data are expressed as percent inhibition relative to the average of the DMSO controls measured on the same microtiter plate.

rat PTP1 = target: T2, rat PTP1 (Rattus norvegicus, UniProt P20417); test: PTP1 assay, pNPP hydrolysis (rate of change in A405); format: biochemical
T2 construct: a C-terminal truncation of rat PTP1 (amino acid residues 1-322); GST (N, cleaved yes); made in house; host or cells: E. coli strain TG-1 (pGEX-2T)
T2 sequence (P20417 1-322): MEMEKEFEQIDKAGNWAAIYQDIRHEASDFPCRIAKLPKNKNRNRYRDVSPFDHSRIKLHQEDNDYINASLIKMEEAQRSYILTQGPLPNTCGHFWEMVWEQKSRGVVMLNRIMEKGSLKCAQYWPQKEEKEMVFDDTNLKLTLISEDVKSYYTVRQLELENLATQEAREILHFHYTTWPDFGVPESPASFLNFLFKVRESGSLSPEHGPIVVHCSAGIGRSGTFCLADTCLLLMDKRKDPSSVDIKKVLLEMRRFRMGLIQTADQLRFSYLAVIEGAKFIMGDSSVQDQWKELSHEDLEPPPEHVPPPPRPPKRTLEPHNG
Procedure, shortened: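 Thrombin-cleaved rat PTP1 residues 1-322 (35 ng/ml) with 1 mM pNPP in 50 mM Hepes pH 7.2, NaCl, EDTA, DTT, BSA at room temperature. A405 rate followed 60 min. Compounds added as 10 mM solutions; percent inhibition relative to plate DMSO controls, 1 mM orthovanadate as full-inhibition control.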

[1] = inhibition of pNPP-hydrolysis, compound concentration 1 μM, read-out: % Inhibition
[2] = inhibition of pNPP-hydrolysis, compound concentration 10 μM, read-out: % Inhibition
[3] = inhibition of pNPP-hydrolysis, compound concentration 100 μM, read-out: % Inhibition

SMILES | inhibition at 1 µM (human PTP1B; Conc 1 uM) [%] | inhibition at 10 µM (human PTP1B; Conc 10 uM) [%] | inhibition at 100 µM (human PTP1B; Conc 100 uM) [%] | further results
CCCCCNC(=O)C(Cc1ccc(OC(COO)COO)cc1)NC(=O)N(Cc1ccccc1)C(CCc1ccccc1)CC(=O)O (centres unmarked) | 5 | 8 | 42 | 
CCCCCNC(=O)C(Cc1ccc(OCCOO)c(COO)c1)NC(=O)C(C)NC(=O)OC(C)(C)C (centres unmarked) | 8 | 43 | 86 | 
CCCCCNC(=O)C(Cc1ccc(OCCOO)c(COO)c1)NC(=O)N(Cc1ccccc1)Cc1ccccc1 (centres unmarked) | 11 | 45 | 87 | 
CCCCCNC(=O)C(Cc1ccc(OC(COO)COO)cc1)NC(=O)C(Cc1cccc2ccccc12)NC(=O)OC(C)(C)C (centres unmarked) | 3 | 33 | 86 | 
CCCCCNC(=O)C(Cc1ccc(OCCOO)c(COO)c1)NC(=O)C(Cc1ccccc1)NC(=O)Cc1cccc(O)c1 (centres unmarked) | 43 | 86 | 98 | 
CCCCCNC(=O)C(Cc1ccc(OC(COO)COO)cc1)NC(=O)C(CCCCNC(=O)OCc1ccccc1)NC(=O)OC(C)(C)C (centres unmarked) | 6 | 28 | 79 | 
CCCCCNC(=O)C(Cc1ccc(OC(COO)COO)cc1)NC(=O)N1CCN(C(=O)OC(C)(C)C)CC1 (centres unmarked) | 19 | 68 | 95 | PTP1B Inhib PTP1B. % Inhib (human PTP1B; Conc 10 uM): 63%; PTP1B Inhib PTP1B. % Inhib (human PTP1B; Conc 100 uM): 92%
CCCCCNC(=O)C(Cc1ccc(OC(COO)COO)cc1)NC(=O)C(Cc1ccccc1)NC(=O)CCOC (centres unmarked) | 19 | 65 | 94 | 
CCCCCNC(=O)C(Cc1ccc(OCCOO)c(COO)c1)NC(=O)C(Cc1ccc(O)cc1)NC(=O)OC(C)(C)C (centres unmarked) | 32 | 81 | 97 | PTP1B Inhib PTP1B. % Inhib (human PTP1B; Conc 1 uM): 28%; PTP1B Inhib PTP1B. % Inhib (human PTP1B; Conc 10 uM): 78%; PTP1B Inhib PTP1B. % Inhib (human PTP1B; Conc 100 uM): 96%
CCCCCNC(=O)C(Cc1ccc(OCCOO)c(COO)c1)NC(=O)C(Cc1ccccc1)NC(=O)CCOC (centres unmarked) | 37 | 83 | 97 | 
CCCCCNC(=O)C(Cc1ccc(OC(COO)COO)cc1)NC(=O)C(Cc1ccc2ccccc2c1)NC(=O)OC(C)(C)C (centres unmarked) |  | 29 | 93 | PTP1B Inhib PTP1B. % Inhib (human PTP1B; Conc 1 uM): 1% and 3%; PTP1B Inhib PTP1B. % Inhib (human PTP1B; Conc 100 uM): 90%
CCCCCNC(=O)C(Cc1ccc(OCCOO)c(COO)c1)NC(=O)C(Cc1ccccc1)NC(=O)CCCO (centres unmarked) | 23 | 78 | 96 | 
CCCCCNC(=O)C(Cc1ccc(OC(C(=O)O)C(=O)O)cc1)NC(=O)[C@H](Cc1c[nH]c2ccccc12)NC(=O)OC(C)(C)C (some centres unmarked) | 10 | 44 | 89 | 
CCCCCNC(=O)C(Cc1ccc(OC(COO)COO)cc1)NC(=O)C(Cc1ccccc1)NS(=O)OCc1ccccc1 (centres unmarked) | 4 | 16 | 62 | 
CCCCCNC(=O)C(Cc1ccc(OC(COO)COO)cc1)NC(=O)C(Cc1ccccc1)NS(=O)OC (centres unmarked) | 9 | 40 | 86 | 
CCCCCNC(=O)C(Cc1ccc(OC(COO)COO)cc1)NC(=O)C(CSCc1ccccc1)NC(=O)OC(C)(C)C (centres unmarked) | 2 | 14 | 75 | PTP1B Inhib PTP1B. % Inhib (human PTP1B; Conc 1 uM): 3%; PTP1B Inhib PTP1B. % Inhib (human PTP1B; Conc 10 uM): 16%; PTP1B Inhib PTP1B. % Inhib (human PTP1B; Conc 100 uM): 83%
CCCCCNC(=O)C(Cc1ccc(OCCOO)c(COO)c1)NC(=O)C(Cc1ccccc1)NC(=O)CCCc1ccccc1 (centres unmarked) | 19 | 70 | 96 | 
CCCCCNC(=O)C(Cc1ccc(OC(COO)COO)cc1)NC(=O)C(CCSC)NC(=O)OC(C)(C)C (centres unmarked) | 5 | 25 | 74 | PTP1B Inhib PTP1B. % Inhib (human PTP1B; Conc 10 uM): 30%; PTP1B Inhib PTP1B. % Inhib (human PTP1B; Conc 100 uM): 82%
CCCCCNC(=O)C(Cc1ccc(OC(COO)COO)cc1)NC(=O)C(COCc1ccccc1)NC(=O)OC(C)(C)C (centres unmarked) | 3 | 19 | 71 | 
O=C(O)COc1ccc(C[C@H](NC(=O)c2ccoc2)C(=O)NCCCCc2ccc(Cl)cc2)cc1C(=O)O [Example 154-26, 2-(carboxymethoxy)-5-[(2S)-3-{[4-(4-chlorophenyl)butyl]amino}-2-(3-furoylamino)-3-oxopropyl]benzoic acid] |  |  |  | inhibition at 1 µM (rat PTP1; [1]): 30%; inhibition at 10 µM (rat PTP1; [2]): 78%; inhibition at 100 µM (rat PTP1; [3]): 97%
O=C(O)CCC(=O)NC(Cc1ccc(OC(COO)COO)cc1)C(=O)NCc1cccc2ccccc12 (centres unmarked) |  |  |  | inhibition at 1 µM (rat PTP1; Conc 1 uM, pNPP hydrolysis, Table 1, read-out: PTP1 Inhib % Inhib): 7%; inhibition at 10 µM (rat PTP1; Conc 10 uM, pNPP hydrolysis, Table 1, read-out: PTP1 Inhib % Inhib): 18%; inhibition at 100 µM (rat PTP1; Conc 100 uM, pNPP hydrolysis, Table 1, read-out: PTP1 Inhib % Inhib): 61%
CC(C)(C)OC(=O)N[C@@H](Cc1ccccc1)C(=O)N[C@H](CO)Cc1ccc(OCC(=O)O)c(C(=O)O)c1 [Example 148, 5-[(2S)-2-({(2S)-2-[(tert-butoxycarbonyl)amino]-3-phenylpropanoyl}amino)-3-hydroxypropyl]-2-(carboxymethoxy)benzoic Acid] |  |  |  | inhibition at 1 µM (rat PTP1; [1]): 5%; inhibition at 10 µM (rat PTP1; [2]): 31%; inhibition at 100 µM (rat PTP1; [3]): 80%

More lines, main results first:

inhibition at 1 µM (human PTP1B; Conc 1 uM) [%] | inhibition at 10 µM (human PTP1B; Conc 10 uM) [%] | inhibition at 100 µM (human PTP1B; Conc 100 uM) [%] | SMILES | further results
5 | 13 | 54 | CCCCCNC(=O)[C@H](Cc1ccc(OCC(=O)O)c(C(=O)NO)c1)NC(=O)[C@H](Cc1ccccc1)NC(=O)OC(C)(C)C | 
24 | 71 | 94 | CCCCCNC(=O)[C@H](Cc1ccc(OCC(=O)O)c(C(=O)O)c1)NC(=O)C(Cc1ccccc1)N1CCCC1=O (some centres unmarked) | 
36 | 82 | 96 | CCCCCNC(=O)[C@H](Cc1ccc(OCC(=O)O)c(C(=O)O)c1)NC(=O)C(Cc1ccccc1)NC(=O)CSc1nnc[nH]1 (some centres unmarked) | 
49 | 88 | 98 | CCCCCNC(=O)[C@H](Cc1ccc(OCC(=O)O)c(C(=O)O)c1)NC(=O)C(Cc1ccccc1)NC(=O)CSc1cnn[nH]1 (some centres unmarked) | 
6 | 8 | 30 | CCCCCNC(=O)[C@H](Cc1ccc(OCC(=O)NO)c(C(=O)O)c1)NC(=O)[C@H](Cc1ccccc1)NC(=O)OC(C)(C)C | 
3 | 5 | 25 | CCCCCNC(=O)[C@H](Cc1ccc(OCC(=O)OC)c(C(=O)O)c1)NC(=O)[C@H](Cc1ccccc1)NC(=O)OC(C)(C)C | 
57 | 91 | 98 | CCCCCNC(=O)[C@H](Cc1ccc(OCC(=O)O)c(C(=O)O)c1)NC(=O)C(Cc1ccccc1)NC(=O)Cn1nnnc1S (some centres unmarked) | 
2 | 8 | 44 | CCCCCNC(=O)[C@H](Cc1ccc(OC(C(=O)O)C(=O)O)cc1)NC(=O)C(Cc1ccccc1)NC(=O)OC(C)(C)C (some centres unmarked) | 
3 | 6 | 29 | CCCCCNC(=O)[C@H](Cc1ccc(N(CC(=O)O)CC(=O)O)cc1)NC(=O)[C@H](Cc1ccccc1)NC(=O)OC(C)(C)C | 
